Measurements as given in patent US8110573B2, “Pyrazole compounds that modulate the activity of CDK, GSK and aurora kinases” (Astex Therapeutics Limited, priority 2004, dated 2012).
Where a name gives a salt, the structure may show the parent alone.

Key:
[1] = Gravimetric vapour sorption (GVS); format: physicochemical; settings: 0-90% RH cycle, 25° C.
Method: The sample size was ca. 10-25 mg. […] The sample was loaded and unloaded at room humidity and temperature (ca. 40% RH, 25° C.) and analysed afterwards by XRPD (using a Bruker AXS C2 GADDS system).

[2] = Salt stability at 40° C. 75% RH followed by XRPD; format: physicochemical; settings: 40° C. and 75% RH over the period of 1-2 month
Method: Approximately 15 mg of samples for the stability study were gently ground by marble mortar and transferred to a Petri dish in a thin layer. Samples were then placed in sealed containers containing saturated NaCl solution with an excess of undissolved NaCl. […] Samples were analysed by X-ray powder diffraction (XRPD) in regular intervals. Samples for XRPD data collection were loaded into crystallographic capillary (from Hampton Research, made of Quartz, diameter=0.4 mm). […] 2D Images were collected while spinning φ axis with a detector to crystal distance of 250 mm. Data collection was controlled by CrystalClear software and 2D images were converted to 1D plot (2θ vs. Intensity) by Datasqueeze (intensity averaged over the azimuthal angle 0<χ<360° for 2θ range 3-30° in 0.01° steps).

[3] = biological target: T1, CDK1/CyclinB (Homo sapiens, UniProt P06493); experiment: Activated CDK1/CyclinB kinase inhibitory activity assay; format: biochemical
T1 construct: purchased Upstate Discovery
Method: The reaction is allowed to proceed for 2 to 4 hours before being stopped with an excess of ortho-phosphoric acid (5 μl at 2%). γ^33P-ATP which remains unincorporated into the histone H1 is separated from phosphorylated histone H1 on a Millipore MAPH filter plate. The wells of the MAPH plate are wetted with 0.5% orthophosphoric acid, and then the results of the reaction are filtered with a Millipore vacuum filtration unit through the wells. Following filtration, the residue is washed twice with 200 μl of 0.5% orthophosphoric acid. Once the filters have dried, 20 μl of Microscint 20 scintillant is added, and then counted on a Packard Topcount for 30 seconds.
CDK1/CyclinB assay is identical to the CDK2/CyclinA above except that CDK1/CyclinB (Upstate Discovery) is used and the enzyme is diluted to 6.25 nM.

[4] = tested on: HCT-116 cell line; experiment: Anti-proliferative activity (Alamar Blue assay); format: cell-based, human
Method: The anti-proliferative activities of compounds of the invention can be determined by measuring the ability of the compounds to inhibition of cell growth in a number of cell lines. Inhibition of cell growth is measured using the Alamar Blue assay (Nociari, M. M, Shalev, A., Benias, P., Russo, C. Journal of Immunological Methods 1998, 213, 157-167). The method is based on the ability of viable cells to reduce resazurin to its fluorescent product resorufin. For each proliferation assay cells are plated onto 96 well plates and allowed to recover for 16 hours prior to the addition of inhibitor compounds for a further 72 hours. At the end of the incubation period 10% (v/v) Alamar Blue is added and incubated for a further 6 hours prior to determination of fluorescent product at […]. In the case of the non-proliferating cell assay cells are maintained at confluence for 96 hour prior to the addition of inhibitor compounds for a further 72 hours. The number of viable cells is determined by Alamar Blue assay as before. In addition, any morphological changes are recorded. Cell lines can be obtained from the ECACC (European Collection of cell Cultures).
In particular, compounds of the invention were tested against the HCT-116 cell line (ECACC Reference: 91091005) derived from human colon carcinoma.

[5] = physchem; settings: water, thermodynamic from solid

T1 sequence (P06493 whole entry): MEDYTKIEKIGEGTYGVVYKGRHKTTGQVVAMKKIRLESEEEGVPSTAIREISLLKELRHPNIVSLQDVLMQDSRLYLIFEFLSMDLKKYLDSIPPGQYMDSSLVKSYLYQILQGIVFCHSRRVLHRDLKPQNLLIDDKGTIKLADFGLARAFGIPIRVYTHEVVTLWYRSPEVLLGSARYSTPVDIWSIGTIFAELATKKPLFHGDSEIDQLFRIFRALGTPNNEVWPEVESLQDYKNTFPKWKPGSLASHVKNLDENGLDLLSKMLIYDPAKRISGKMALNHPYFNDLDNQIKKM
T1 sequence (P14635 whole entry partner): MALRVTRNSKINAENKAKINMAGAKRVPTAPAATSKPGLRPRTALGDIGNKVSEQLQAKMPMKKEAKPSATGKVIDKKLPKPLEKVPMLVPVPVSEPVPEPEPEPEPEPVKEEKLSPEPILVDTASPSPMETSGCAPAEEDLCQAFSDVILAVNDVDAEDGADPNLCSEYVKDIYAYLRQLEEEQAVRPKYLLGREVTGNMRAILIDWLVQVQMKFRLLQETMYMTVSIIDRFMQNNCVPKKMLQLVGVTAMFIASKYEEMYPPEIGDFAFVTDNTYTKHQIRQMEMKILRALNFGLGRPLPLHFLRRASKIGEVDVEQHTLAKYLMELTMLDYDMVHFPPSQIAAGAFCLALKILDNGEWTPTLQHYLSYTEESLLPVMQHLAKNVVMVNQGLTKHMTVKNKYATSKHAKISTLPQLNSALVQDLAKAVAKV

| change of XRPD pattern on storage [2] | IC50 [3] [µM] | IC50 ([4]; Homo sapiens, HCT-116, 72 hours compound, Alamar Blue, read-out: IC50, inhibition of cell growth, HCT-116 cell line) [µM] | solubility at 16 h [5] [mg/mL] | SMILES | hygroscopic behaviour (GVS isotherm) [1] | minimum concentration at which polyploidy or multinucleation is observed ([4]; HCT-116 cell line) |
| --- | --- | --- | --- | --- | --- | --- |
| do not change | – | – | – | C[C@H](O)C(=O)O.O=C(Nc1c[nH]nc1-c1nc2cc(CN3CCOCC3)ccc2[nH]1)NC1CC1 [L-lactate salt, 1-cyclopropyl-3-[3-(5-morpholin-4-ylmethyl-1H-benzoimidazol-2-yl)-1H-pyrazol-4-yl]-urea, L-lactate salt] | does not display hygroscopic behaviour and does not form a hydrate | – |
| do not change | < 10 | < 1 | – | O=C(Nc1c[nH]nc1-c1nc2cc(CN3CCOCC3)ccc2[nH]1)NC1CC1 [Example 24, 1-cyclopropyl-3-[3-(5-morpholin-4-ylmethyl-1H-benzoimidazol-2-yl)-1H-pyrazol-4-yl]-urea] | – | less than 100 nM |
| – | – | – | < 25 | O=C(Nc1c[nH]nc1-c1nc2cc(CN3CCOCC3)ccc2[nH]1)NC1CC1 [Hydrochloride, 1-cyclopropyl-3-[3-(5-morpholin-4-ylmethyl-1H-benzoimidazol-2-yl)-1H-pyrazol-4-yl]-urea] | – | – |
